Laboratory results taken from patent US8772480B2, “Inhibitors of PI3 kinase and/or mTOR” (priority 2009, dated 2014).

Assays:
Assay type in all cases: biochemical
[1] = target: ProfilerPro Kinase Selectivity Assay Kit kinases (Homo sapiens, UniProt O00141); conditions: SGK1; 1 μM compound concentration
Description: (§1) Compounds were profiled using a LabChip® EZ Reader II platform and a ProfilerPro Kinase Selectivity Assay Kit (Caliper Lifesciences Inc., Hopkinton, Mass.). Compounds were tested at a concentration of 1 M in duplicate, with mean data reported as percent of control (POC).

[2] = target: ProfilerPro Kinase Selectivity Assay Kit kinases (Homo sapiens, UniProt O14757); conditions: CHK1; 1 μM compound concentration
Description: as §1

[3] = target: ProfilerPro Kinase Selectivity Assay Kit kinases (Homo sapiens, UniProt O14965); conditions: AURORA A; 1 μM compound concentration
Description: as §1

[4] = target: ProfilerPro Kinase Selectivity Assay Kit kinases (Homo sapiens, UniProt O75116); conditions: ROCK2; 1 μM compound concentration
Description: as §1

[5] = target: ProfilerPro Kinase Selectivity Assay Kit kinases (Homo sapiens, UniProt O75582); conditions: MSK1; 1 μM compound concentration
Description: as §1

[6] = target: ProfilerPro Kinase Selectivity Assay Kit kinases (Homo sapiens, UniProt O95819); conditions: HGK; 1 μM compound concentration
Description: as §1

[7] = target: ProfilerPro Kinase Selectivity Assay Kit kinases (Homo sapiens, UniProt P00519); conditions: ABL; 1 μM compound concentration
Description: as §1

[8] = target: ProfilerPro Kinase Selectivity Assay Kit kinases (Homo sapiens, UniProt P06213); conditions: INSR; 1 μM compound concentration
Description: as §1

[9] = target: ProfilerPro Kinase Selectivity Assay Kit kinases (Homo sapiens, UniProt P06241); conditions: FYN; 1 μM compound concentration
Description: as §1

[10] = target: ProfilerPro Kinase Selectivity Assay Kit kinases (Homo sapiens, UniProt P07948); conditions: LYN; 1 μM compound concentration
Description: as §1

[11] = target: ProfilerPro Kinase Selectivity Assay Kit kinases (Homo sapiens, UniProt P08069); conditions: IGF1R; 1 μM compound concentration
Description: as §1

[12] = target: ProfilerPro Kinase Selectivity Assay Kit kinases (Homo sapiens, UniProt P08581); conditions: cMET; 1 μM compound concentration
Description: as §1

[13] = target: ProfilerPro Kinase Selectivity Assay Kit kinases (Homo sapiens, UniProt P11362); conditions: FGFR1; 1 μM compound concentration
Description: as §1

[14] = target: ProfilerPro Kinase Selectivity Assay Kit kinases (Homo sapiens, UniProt P12931); conditions: SRC; 1 μM compound concentration
Description: as §1

[15] = target: ProfilerPro Kinase Selectivity Assay Kit kinases (Homo sapiens, UniProt P17612); conditions: PKA alpha; 1 μM compound concentration
Description: as §1

[16] = target: ProfilerPro Kinase Selectivity Assay Kit kinases (Homo sapiens, UniProt P24941); conditions: CDK2; 1 μM compound concentration
Description: as §1

[17] = target: ProfilerPro Kinase Selectivity Assay Kit kinases (Homo sapiens, UniProt P27361); conditions: ERK1; 1 μM compound concentration
Description: as §1

[18] = target: ProfilerPro Kinase Selectivity Assay Kit kinases (Homo sapiens, UniProt P31751); conditions: AKT2; 1 μM compound concentration
Description: as §1

[19] = target: ProfilerPro Kinase Selectivity Assay Kit kinases (Homo sapiens, UniProt P35968); conditions: KDR; 1 μM compound concentration
Description: as §1

[20] = target: ProfilerPro Kinase Selectivity Assay Kit kinases (Homo sapiens, UniProt P36888); conditions: FLT3; 1 μM compound concentration
Description: as §1

[21] = target: ProfilerPro Kinase Selectivity Assay Kit kinases (Homo sapiens, UniProt P43405); conditions: SYK; 1 μM compound concentration
Description: as §1

[22] = target: ProfilerPro Kinase Selectivity Assay Kit kinases (Homo sapiens, UniProt P48730); conditions: CK1 delta; 1 μM compound concentration
Description: as §1

[23] = target: ProfilerPro Kinase Selectivity Assay Kit kinases (Homo sapiens, UniProt P49137); conditions: MAPKAPK2; 1 μM compound concentration
Description: as §1

[24] = target: ProfilerPro Kinase Selectivity Assay Kit kinases (Homo sapiens, UniProt Q06187); conditions: BTK; 1 μM compound concentration
Description: as §1

[25] = target: ProfilerPro Kinase Selectivity Assay Kit kinases (Homo sapiens, UniProt Q13177); conditions: PAK2; 1 μM compound concentration
Description: as §1

[26] = target: ProfilerPro Kinase Selectivity Assay Kit kinases (Homo sapiens, UniProt Q13188); conditions: MST2; 1 μM compound concentration
Description: as §1

[27] = target: ProfilerPro Kinase Selectivity Assay Kit kinases (Homo sapiens, UniProt Q13627); conditions: DYRK1a; 1 μM compound concentration
Description: as §1

[28] = target: ProfilerPro Kinase Selectivity Assay Kit kinases (Homo sapiens, UniProt Q8IW41); conditions: PRAK; 1 μM compound concentration
Description: as §1

[29] = target: ProfilerPro Kinase Selectivity Assay Kit kinases (Homo sapiens, UniProt Q9BZL6); conditions: PKD2; 1 μM compound concentration
Description: as §1

[30] = target: ProfilerPro Kinase Selectivity Assay Kit kinases (Homo sapiens, UniProt Q9P0L2); conditions: MARK1; 1 μM compound concentration
Description: as §1

[31] = test system: ProfilerPro Kinase Selectivity Assay Kit kinases; conditions: 1 μM compound concentration
Description: as §1

Chain of ProfilerPro Kinase Selectivity Assay Kit kinases (Homo sapiens, UniProt Q13177) (Q13177 2-524 limits assumed): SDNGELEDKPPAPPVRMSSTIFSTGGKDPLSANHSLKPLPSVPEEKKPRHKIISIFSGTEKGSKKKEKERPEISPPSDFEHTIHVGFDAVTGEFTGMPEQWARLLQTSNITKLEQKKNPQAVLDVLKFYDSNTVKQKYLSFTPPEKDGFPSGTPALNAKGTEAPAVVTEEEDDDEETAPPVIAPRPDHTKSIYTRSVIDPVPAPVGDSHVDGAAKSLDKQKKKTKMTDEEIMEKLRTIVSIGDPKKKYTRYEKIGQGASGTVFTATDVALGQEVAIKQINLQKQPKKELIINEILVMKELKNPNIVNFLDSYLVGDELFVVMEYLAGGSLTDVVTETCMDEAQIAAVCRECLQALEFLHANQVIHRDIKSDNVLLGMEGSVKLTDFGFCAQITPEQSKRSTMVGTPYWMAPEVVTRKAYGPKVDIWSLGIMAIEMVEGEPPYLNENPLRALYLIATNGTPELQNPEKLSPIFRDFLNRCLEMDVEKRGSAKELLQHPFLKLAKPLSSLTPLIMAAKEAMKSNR
Chain of ProfilerPro Kinase Selectivity Assay Kit kinases (Homo sapiens, UniProt P27361) (P27361 2-379 limits assumed): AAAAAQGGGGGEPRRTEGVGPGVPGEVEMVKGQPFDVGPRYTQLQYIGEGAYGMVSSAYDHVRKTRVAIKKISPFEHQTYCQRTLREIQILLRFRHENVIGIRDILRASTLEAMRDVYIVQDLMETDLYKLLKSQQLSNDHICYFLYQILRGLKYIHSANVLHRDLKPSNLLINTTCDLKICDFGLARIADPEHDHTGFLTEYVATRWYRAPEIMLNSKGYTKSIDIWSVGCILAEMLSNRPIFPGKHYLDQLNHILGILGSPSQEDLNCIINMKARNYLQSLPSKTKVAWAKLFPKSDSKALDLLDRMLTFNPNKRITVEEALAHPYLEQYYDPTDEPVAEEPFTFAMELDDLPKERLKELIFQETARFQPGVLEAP
Chain of ProfilerPro Kinase Selectivity Assay Kit kinases (Homo sapiens, UniProt P06241) (P06241 2-537 limits assumed): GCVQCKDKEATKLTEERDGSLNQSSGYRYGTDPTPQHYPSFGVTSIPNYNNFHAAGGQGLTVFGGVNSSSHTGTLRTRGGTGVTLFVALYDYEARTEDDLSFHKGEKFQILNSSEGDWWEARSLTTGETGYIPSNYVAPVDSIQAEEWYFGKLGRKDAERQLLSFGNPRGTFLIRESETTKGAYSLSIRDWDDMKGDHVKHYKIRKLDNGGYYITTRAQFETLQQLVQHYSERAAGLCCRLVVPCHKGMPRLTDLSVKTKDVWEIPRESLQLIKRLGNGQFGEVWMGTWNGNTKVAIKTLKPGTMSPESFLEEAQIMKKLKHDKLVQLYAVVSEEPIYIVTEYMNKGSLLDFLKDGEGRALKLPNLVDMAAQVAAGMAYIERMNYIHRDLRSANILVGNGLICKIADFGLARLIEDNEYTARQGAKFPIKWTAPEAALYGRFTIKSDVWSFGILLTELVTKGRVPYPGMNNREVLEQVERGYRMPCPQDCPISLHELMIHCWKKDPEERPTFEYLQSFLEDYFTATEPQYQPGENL
Chain of ProfilerPro Kinase Selectivity Assay Kit kinases (Homo sapiens, UniProt P36888) (P36888 27-993 limits assumed): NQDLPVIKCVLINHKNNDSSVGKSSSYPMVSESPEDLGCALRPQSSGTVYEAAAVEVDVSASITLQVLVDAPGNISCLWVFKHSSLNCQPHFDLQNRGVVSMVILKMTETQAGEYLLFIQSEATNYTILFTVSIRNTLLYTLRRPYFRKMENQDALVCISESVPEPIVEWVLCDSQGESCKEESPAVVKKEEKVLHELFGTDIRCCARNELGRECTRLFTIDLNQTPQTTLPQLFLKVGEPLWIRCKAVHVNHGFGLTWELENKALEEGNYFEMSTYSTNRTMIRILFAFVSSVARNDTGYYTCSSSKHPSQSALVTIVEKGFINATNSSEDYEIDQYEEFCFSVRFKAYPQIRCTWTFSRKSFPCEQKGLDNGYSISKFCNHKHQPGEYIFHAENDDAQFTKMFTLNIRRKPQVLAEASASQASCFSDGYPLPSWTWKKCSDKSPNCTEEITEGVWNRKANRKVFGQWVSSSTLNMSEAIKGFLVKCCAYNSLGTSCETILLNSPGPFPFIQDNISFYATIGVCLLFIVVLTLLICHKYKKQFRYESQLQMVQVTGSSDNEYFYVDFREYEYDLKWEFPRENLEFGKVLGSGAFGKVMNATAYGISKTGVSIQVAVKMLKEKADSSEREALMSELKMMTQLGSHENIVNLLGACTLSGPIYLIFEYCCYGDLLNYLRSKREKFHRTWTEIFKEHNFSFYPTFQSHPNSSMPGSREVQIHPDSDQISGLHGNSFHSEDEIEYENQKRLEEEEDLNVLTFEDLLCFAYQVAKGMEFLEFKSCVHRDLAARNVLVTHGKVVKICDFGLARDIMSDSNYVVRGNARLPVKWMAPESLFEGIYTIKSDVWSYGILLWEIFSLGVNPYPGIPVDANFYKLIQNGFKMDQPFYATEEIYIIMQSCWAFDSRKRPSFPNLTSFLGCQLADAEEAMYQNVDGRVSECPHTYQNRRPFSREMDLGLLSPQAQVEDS
Chain of ProfilerPro Kinase Selectivity Assay Kit kinases (Homo sapiens, UniProt P08581) (P08581 25-1390 limits assumed): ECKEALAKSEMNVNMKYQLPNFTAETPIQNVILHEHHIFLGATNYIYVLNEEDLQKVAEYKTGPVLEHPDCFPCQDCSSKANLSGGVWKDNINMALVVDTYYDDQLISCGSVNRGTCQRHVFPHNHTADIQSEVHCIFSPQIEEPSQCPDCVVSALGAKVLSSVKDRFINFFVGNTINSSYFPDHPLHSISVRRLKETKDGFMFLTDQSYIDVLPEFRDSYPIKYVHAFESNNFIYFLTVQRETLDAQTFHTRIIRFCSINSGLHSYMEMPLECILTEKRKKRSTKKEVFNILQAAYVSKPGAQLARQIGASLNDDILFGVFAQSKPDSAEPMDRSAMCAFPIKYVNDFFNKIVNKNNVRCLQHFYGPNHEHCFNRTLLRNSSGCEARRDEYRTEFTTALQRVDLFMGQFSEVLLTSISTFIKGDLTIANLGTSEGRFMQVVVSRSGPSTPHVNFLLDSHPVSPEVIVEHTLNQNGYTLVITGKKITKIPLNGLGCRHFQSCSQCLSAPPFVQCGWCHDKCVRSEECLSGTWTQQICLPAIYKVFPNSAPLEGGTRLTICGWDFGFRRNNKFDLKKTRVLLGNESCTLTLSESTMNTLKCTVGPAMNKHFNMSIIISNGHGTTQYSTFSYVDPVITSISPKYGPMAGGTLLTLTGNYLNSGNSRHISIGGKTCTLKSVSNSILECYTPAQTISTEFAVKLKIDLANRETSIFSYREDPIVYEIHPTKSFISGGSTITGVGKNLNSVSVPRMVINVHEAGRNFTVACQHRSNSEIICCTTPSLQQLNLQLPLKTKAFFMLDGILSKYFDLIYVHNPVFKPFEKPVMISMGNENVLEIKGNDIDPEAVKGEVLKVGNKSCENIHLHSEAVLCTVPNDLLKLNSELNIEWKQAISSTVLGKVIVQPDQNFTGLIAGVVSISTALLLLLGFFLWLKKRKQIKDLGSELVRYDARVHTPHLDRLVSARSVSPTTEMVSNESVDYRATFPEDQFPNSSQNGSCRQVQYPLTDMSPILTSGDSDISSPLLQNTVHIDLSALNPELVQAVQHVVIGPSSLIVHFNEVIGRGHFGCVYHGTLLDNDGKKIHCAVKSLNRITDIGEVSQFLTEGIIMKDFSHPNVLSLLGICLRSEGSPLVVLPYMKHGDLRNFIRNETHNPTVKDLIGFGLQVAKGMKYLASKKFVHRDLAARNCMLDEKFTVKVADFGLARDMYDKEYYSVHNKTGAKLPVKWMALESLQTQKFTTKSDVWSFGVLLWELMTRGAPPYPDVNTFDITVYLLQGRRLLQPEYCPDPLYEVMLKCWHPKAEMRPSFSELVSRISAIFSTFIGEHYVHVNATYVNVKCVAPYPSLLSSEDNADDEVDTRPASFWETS
Chain of ProfilerPro Kinase Selectivity Assay Kit kinases (Homo sapiens, UniProt Q06187) (Q06187 2-659 limits assumed): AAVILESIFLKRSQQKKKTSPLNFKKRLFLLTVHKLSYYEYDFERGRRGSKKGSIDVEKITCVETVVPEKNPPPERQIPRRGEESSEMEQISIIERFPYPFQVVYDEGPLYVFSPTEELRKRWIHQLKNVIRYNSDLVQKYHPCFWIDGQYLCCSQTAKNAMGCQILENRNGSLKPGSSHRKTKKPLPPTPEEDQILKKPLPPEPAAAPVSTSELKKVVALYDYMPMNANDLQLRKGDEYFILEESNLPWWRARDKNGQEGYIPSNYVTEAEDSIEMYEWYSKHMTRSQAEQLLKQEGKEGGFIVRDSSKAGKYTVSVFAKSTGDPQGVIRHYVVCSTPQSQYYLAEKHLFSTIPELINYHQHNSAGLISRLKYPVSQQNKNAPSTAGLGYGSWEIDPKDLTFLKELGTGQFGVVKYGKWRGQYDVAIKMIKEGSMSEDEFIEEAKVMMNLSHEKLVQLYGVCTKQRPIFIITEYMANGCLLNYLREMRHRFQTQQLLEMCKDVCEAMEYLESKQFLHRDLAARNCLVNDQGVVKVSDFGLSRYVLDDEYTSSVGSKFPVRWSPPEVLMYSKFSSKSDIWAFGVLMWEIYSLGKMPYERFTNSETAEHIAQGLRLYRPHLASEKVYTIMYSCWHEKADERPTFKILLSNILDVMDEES
Chain of ProfilerPro Kinase Selectivity Assay Kit kinases (Homo sapiens, UniProt P12931) (P12931 2-536 limits assumed): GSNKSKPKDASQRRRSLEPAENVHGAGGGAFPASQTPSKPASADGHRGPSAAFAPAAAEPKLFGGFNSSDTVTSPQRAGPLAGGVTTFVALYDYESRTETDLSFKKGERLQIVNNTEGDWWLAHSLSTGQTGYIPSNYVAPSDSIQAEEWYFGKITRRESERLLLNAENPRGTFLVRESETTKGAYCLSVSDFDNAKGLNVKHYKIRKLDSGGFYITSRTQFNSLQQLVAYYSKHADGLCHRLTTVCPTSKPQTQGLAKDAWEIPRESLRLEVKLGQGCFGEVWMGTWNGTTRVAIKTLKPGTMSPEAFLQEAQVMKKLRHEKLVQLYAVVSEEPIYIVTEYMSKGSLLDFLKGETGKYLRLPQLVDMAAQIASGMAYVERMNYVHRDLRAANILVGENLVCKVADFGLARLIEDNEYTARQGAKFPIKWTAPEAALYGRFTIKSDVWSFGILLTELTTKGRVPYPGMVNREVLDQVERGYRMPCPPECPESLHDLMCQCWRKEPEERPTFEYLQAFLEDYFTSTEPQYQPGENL

## COc1ccc(Nc2ncc(Cc3ccc(S(C)(=O)=O)cc3)cc2-c2nc(C)nc3[nH]cnc23)cn1 [Example 103, N-(6-methoxypyridin-3-yl)-3-(2-methyl-9H-purin-6-yl)-5-(4-(methylsulfonyl)benzyl)pyridin-2-amine]
[1]
  POC (Percent of control) SGK1: 96 POC
[2]
  POC (Percent of control) CHK1: 107 POC
[3]
  POC (Percent of control) AURORA A: 100 POC
[4]
  POC (Percent of control) ROCK2: 106 POC
[5]
  POC (Percent of control) MSK1: 101 POC
[6]
  POC (Percent of control) HGK: 85 POC
[7]
  POC (Percent of control) ABL: 95 POC
[8]
  POC (Percent of control) INSR: 95 POC
[9]
  POC (Percent of control) FYN: 97 POC
[10]
  POC (Percent of control) LYN: 97 POC
[11]
  POC (Percent of control) IGF1R: 91 POC
[12]
  POC (Percent of control) cMET: 94 POC
[13]
  POC (Percent of control) FGFR1: 100 POC
[14]
  POC (Percent of control) SRC: 89 POC
[15]
  POC (Percent of control) PKA alpha: 99 POC
[16]
  POC (Percent of control) CDK2: 100 POC
[17]
  POC (Percent of control) ERK1: 101 POC
[18]
  POC (Percent of control) AKT2: 89 POC
[19]
  POC (Percent of control) KDR: 91 POC
[20]
  POC (Percent of control) FLT3: 85 POC
[21]
  POC (Percent of control) SYK: 99 POC
[22]
  POC (Percent of control) CK1 delta: 120 POC
[23]
  POC (Percent of control) MAPKAPK2: 100 POC
[24]
  POC (Percent of control) BTK: 97 POC
[25]
  POC (Percent of control) PAK2: 98 POC
[26]
  POC (Percent of control) MST2: 98 POC
[27]
  POC (Percent of control) DYRK1a: 83 POC
[28]
  POC (Percent of control) PRAK: 103 POC
[29]
  POC (Percent of control) PKD2: 87 POC
[30]
  POC (Percent of control) MARK1: 131 POC
[31]; AMPK
  POC (Percent of control) AMPK: 102 POC
[31]; CAMK2
  POC (Percent of control) CAMK2: 95 POC
[31]; PKC beta2
  POC (Percent of control) PKC beta2: 100 POC
[31]; TAK1
  POC (Percent of control) TAK1: 115 POC
